Source: patent publication US20210330611A1, “THERAPY FOR NEUROLOGICAL DISEASES/DISORDERS” (priority 2020, published 2021)
pIC50: −log10 of the molar value. Where a name gives a salt, the structure may show the parent alone. Read-outs that look alike come from different tables or passages of the source.

How the values were obtained:
[1] = system: fibrin-induced microglia activation; test: Image-based assay of fibrin-induced microglia activation (HTS and dose response); format: cell-based, rat; conditions: for inhibition at 10 µM: Rattus norvegicus, Microglia, read-out: Fibrin % inhibition
[2] = system: LPS-induced microglia activation; test: Image-based assay of LPS-induced microglia activation (HTS and dose response); format: cell-based, rat; conditions: for inhibition at 10 µM: Rattus norvegicus, Microglia, read-out: LPS % inhibition
[3] = system: fibrin- and LPS-induced microglia activation; test: cells; format: cell-based, rat
[4] = system: primary rat microglia;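 for Fibrin % cell toxicity: share of dead cells sized under 150 µm2 at 10 µM in fibrin-stimulated microglia HTS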
[5] = system: primary rat microglia; remark: listed apart in the source;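 for Fibrin % cell toxicity: share of dead cells sized under 150 µm2 at 10 µM in fibrin-stimulated microglia HTS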
[6] = primary microglia HTS, fibrin stimulation, compounds at 10 μM
[7] = primary microglia HTS, LPS stimulation, compounds at 10 μM
[8] = classification by fibrin and LPS inhibition, HTS at 10 μM
[9] = primary microglia HTS, fibrin stimulation, increased cell size (>800 μm^2) as marker of activation
[10] = quadrant by fibrin and LPS inhibition in HTS of 1907 compounds
[11] = primary microglia HTS, fibrin stimulation, activation = cell size >800 μm2
[12] = 48 h, primary microglia HTS, LPS stimulation, activation = cell size >800 μm2

## CCN[C@H]1C[C@H](C)S(=O)(=O)c2sc(S(N)(=O)=O)cc21 [Dorzolamide]
[1]
  inhibition at 10 µM: -40%
[2]
  inhibition at 10 µM: 15%
[3]
  Quadrant (FIG. 5b): Q4
[4]; rat
  Fibrin % cell toxicity: 1%
[5]; rat
  LPS % cell toxicity: 1%

## CNCC[C@H](Oc1cccc2ccccc12)c1cccs1 [Duloxetine]
[1]
  inhibition at 10 µM: 22%
[2]
  inhibition at 10 µM: 24%
[3]
  Quadrant (FIG. 5b): Q4
[4]; rat
  Fibrin % cell toxicity: 0%
[5]; rat
  LPS % cell toxicity: 0%

## C[C@]12C=CC(=O)N[C@@H]1CC[C@@H]1[C@@H]2CC[C@]2(C)[C@@H](C(=O)Nc3cc(C(F)(F)F)ccc3C(F)(F)F)CC[C@@H]12 [Dutasteride]
[1]
  inhibition at 10 µM: 7%
[2]
  inhibition at 10 µM: 22%
[3]
  Quadrant (FIG. 5b): Q4
[4]; rat
  Fibrin % cell toxicity: 1%
[5]; rat
  LPS % cell toxicity: 0%

## Clc1ccc(COC(Cn2ccnc2)c2ccc(Cl)cc2Cl)cc1 (centres unmarked) [Econazole]
[1]
  inhibition at 10 µM: 0%
[2]
  inhibition at 10 µM: 18%
[3]
  Quadrant (FIG. 5b): Q4
[4]; rat
  Fibrin % cell toxicity: 0%
[5]; rat
  LPS % cell toxicity: 0%

## O=c1oc2c(O)c(O)cc3c(=O)oc4c(O)c(O)cc1c4c23 [Ellagic Acid]
[1]; [6]
  inhibition at 10 µM: -5%
[2]; [7]
  inhibition at 10 µM: 24%
[3]; [8]
  Quadrant (FIG. 5b): Q4
[4]; rat
  Fibrin % cell toxicity: 1%
[5]; rat
  LPS % cell toxicity: 0%

## Nc1nc(=O)n([C@@H]2CS[C@H](CO)O2)cc1F [Emtricitabine]
[1]
  inhibition at 10 µM: -73%
[2]
  inhibition at 10 µM: 11%
[3]
  Quadrant (FIG. 5b): Q4
[4]; rat
  Fibrin % cell toxicity: 1%
[5]; rat
  LPS % cell toxicity: 1%

## CCOC(=O)[C@H](CCc1ccccc1)N[C@@H](C)C(=O)N1CCC[C@H]1C(=O)O [Enalapril]
[1]; [6]
  inhibition at 10 µM: 24%
[2]; [7]
  inhibition at 10 µM: 6%
[3]; [8]
  Quadrant (FIG. 5b): Q4
[4]; rat
  Fibrin % cell toxicity: 1%
[5]; rat
  LPS % cell toxicity: 1%

## NC1=NCC2c3ccccc3Cc3ccccc3N12 (centres unmarked) [Epinastine]
[1]
  inhibition at 10 µM: -38%
[2]
  inhibition at 10 µM: -15%
[3]
  Quadrant (FIG. 5b): Q4
[4]; rat
  Fibrin % cell toxicity: 1%
[5]; rat
  LPS % cell toxicity: 0%

## COc1cccc2c1C(=O)c1c(O)c3c(c(O)c1C2=O)C[C@@](O)(C(=O)CO)C[C@@H]3O[C@H]1C[C@H](N)[C@@H](O)[C@H](C)O1 [Epirubicin, Epirubicin Hydrochloride]
[1]; [9]
  Fibrin % inhibition: 113%
[2]; primary microglia HTS, LPS stimulation, increased cell size (>800 μm^2) as marker of activation
  LPS % inhibition: 123%
[3]; [10]
  Quadrant (FIG. 5b): Q2
[4]
  Fibrin % cell toxicity: 79%
[5]
  LPS % cell toxicity: 58%

## C=C1CC[C@H](O)C/C1=C/C=C1\CCC[C@]2(C)[C@@H]([C@H](C)/C=C/[C@H](C)C(C)C)CC[C@@H]12 [Ergocalciferol]
[1]; [6]
  inhibition at 10 µM: -6%
[2]; [7]
  inhibition at 10 µM: 7%
[3]; [8]
  Quadrant (FIG. 5b): Q4
[4]; rat
  Fibrin % cell toxicity: 1%
[5]; rat
  LPS % cell toxicity: 0%

## C#Cc1cccc(Nc2ncnc3cc(OCCOC)c(OCCOC)cc23)c1 [Erlotinib]
[1]; [6]
  inhibition at 10 µM: -52%
[2]; [7]
  inhibition at 10 µM: -8%
[3]; [8]
  Quadrant (FIG. 5b): Q4
[4]; rat
  Fibrin % cell toxicity: 1%
[5]; rat
  LPS % cell toxicity: 0%

## CC[C@@H](CO)NCCN[C@@H](CC)CO [Ethambutol]
[1]; [6]
  inhibition at 10 µM: 12%
[2]; [7]
  inhibition at 10 µM: 14%
[3]; [8]
  Quadrant (FIG. 5b): Q4
[4]; rat
  Fibrin % cell toxicity: 1%
[5]; rat
  LPS % cell toxicity: 1%

## CCc1cccc2c3c([nH]c12)C(CC)(CC(=O)O)OCC3 (centres unmarked) [Etodolac]
[1]; [6]
  inhibition at 10 µM: -87%
[2]; [7]
  inhibition at 10 µM: 14%
[3]; [8]
  Quadrant (FIG. 5b): Q4
[4]; rat
  Fibrin % cell toxicity: 0%
[5]; rat
  LPS % cell toxicity: 1%

## CC12CCC(CC1)C(C)(C)O2 [Eucalyptol]
[1]; [6]
  inhibition at 10 µM: -15%
[2]; [7]
  inhibition at 10 µM: 9%
[3]; [8]
  Quadrant (FIG. 5b): Q4
[4]; rat
  Fibrin % cell toxicity: 0%
[5]; rat
  LPS % cell toxicity: 0%

## CC(Cc1ccc(O)cc1)NCC(O)c1cc(O)cc(O)c1 (centres unmarked) [Fenoterol]
[1]; [11]
  inhibition at 10 µM: 40%
[2]; [12]
  inhibition at 10 µM: 26%
[3]; [10]
  Quadrant (FIG. 5b): Q4
[4]; rat
  Fibrin % cell toxicity: 0%
[5]; rat
  LPS % cell toxicity: 0%

## OC(Cn1cncn1)(Cn1cncn1)c1ccc(F)cc1F [Fluconazole]
[1]
  inhibition at 10 µM: 3%
[2]; 48 h
  inhibition at 10 µM: 19%
[3]
  Quadrant (FIG. 5b): Q4
[4]; rat
  Fibrin % cell toxicity: 0%
[5]; rat
  LPS % cell toxicity: 0%

## CCOC(=O)c1ncn2c1CN(C)C(=O)c1cc(F)ccc1-2 [Flumazenil]
[1]; [11]
  inhibition at 10 µM: 5%
[2]; [12]
  inhibition at 10 µM: 14%
[3]; [10]
  Quadrant (FIG. 5b): Q4
[4]; rat
  Fibrin % cell toxicity: 1%
[5]; rat
  LPS % cell toxicity: 1%

## C[C@@H]1C[C@H]2[C@@H]3C[C@H](F)C4=CC(=O)C=C[C@]4(C)[C@@]3(F)[C@@H](O)C[C@]2(C)[C@@]1(O)C(=O)COC(=O)C(C)(C)C [Flumethazone pivalate, reference compound]
[1]
  Fibrin % inhibition: 101%
  Fibrin Selectivity: 4
  Fibrin Selectivity (LOG10): 0.58
  fib specificity: 1.0
  fib_HS: −0.23
[1]; read-out: Fibrin IC50
  pIC50: > 9.00
[1]; read-out: Fibrin IC50 (uM) (Suppl. Table 7)
  IC50: < 0.001 µM
[2]
  LPS % inhibition: 94%
  LPS specificity: 1.0
  LPS_HS: 0.00
[2]; read-out: LPS IC50
  pIC50: 8.40
[2]; read-out: LPS IC50 (uM) (Suppl. Table 7)
  IC50: 0.004 µM
[3]
  Activity: fib/LPS
  Cherry-picked Hit (Suppl. Table 7): HIT (key: HIT: Hits were defined as molecules that exhibited greater than 50% inhibition of either fibrin or LPS activation)
  Hit: HIT (key: HIT: Hits were defined as molecules that exhibited greater than 50% inhibition of either fibrin or LPS activation)
  Quadrant (FIG. 5b): Q2
[4]
  Fibrin % cell toxicity: 1%
  pIC50: < 4.70
[5]
  pIC50: < 4.70
  LPS % cell toxicity: 3%

## Fc1ccc(C(c2ccc(F)cc2)N2CCN(C/C=C/c3ccccc3)CC2)cc1 [Flunarizine]
[1]
  inhibition at 10 µM: -10%
[2]; 48 h
  inhibition at 10 µM: 12%
[3]
  Quadrant (FIG. 5b): Q4
[4]; rat
  Fibrin % cell toxicity: 1%
[5]; rat
  LPS % cell toxicity: 1%

## OCCN1CCN(CCCN2c3ccccc3Sc3ccc(C(F)(F)F)cc32)CC1 [Fluphenazine]
[1]
  inhibition at 10 µM: 7%
[2]; 48 h
  inhibition at 10 µM: 20%
[3]
  Quadrant (FIG. 5b): Q4
[4]; rat
  Fibrin % cell toxicity: 1%
[5]; rat
  LPS % cell toxicity: 0%

## CC(C)C(=O)Nc1ccc([N+](=O)[O-])c(C(F)(F)F)c1 [Flutamide]
[1]; [11]
  inhibition at 10 µM: 15%
[2]; [12]
  inhibition at 10 µM: 23%
[3]; [10]
  Quadrant (FIG. 5b): Q4
[4]; rat
  Fibrin % cell toxicity: 1%
[5]; rat
  LPS % cell toxicity: 0%

## COc1ccc(CC(C)NCC(O)c2ccc(O)c(NC=O)c2)cc1 (centres unmarked) [Formoterol]
[1]
  inhibition at 10 µM: -6%
[2]; 48 h
  inhibition at 10 µM: 32%
[3]
  Quadrant (FIG. 5b): Q4
[4]; rat
  Fibrin % cell toxicity: 1%
[5]; rat
  LPS % cell toxicity: 1%

## O=C(O)/C=C/C(=O)O [Fumaric Acid]
[1]
  inhibition at 10 µM: 19%
[2]; 48 h
  inhibition at 10 µM: 17%
[3]
  Quadrant (FIG. 5b): Q4
[4]; rat
  Fibrin % cell toxicity: 1%
[5]; rat
  LPS % cell toxicity: 0%

## CN(C)c1ccc(C(=C2C=CC(=[N+](C)C)C=C2)c2ccc(N(C)C)cc2)cc1 [Gentian Violet]
[1]; [9]
  inhibition at 10 µM: 117%
[2]; 48 h, primary microglia HTS, LPS stimulation, increased cell size (>800 μm^2) as marker of activation
  inhibition at 10 µM: 118%
[3]; [10]
  Quadrant (FIG. 5b): Q2
[4]; rat
  Fibrin % cell toxicity: 38%
[5]; rat
  LPS % cell toxicity: 73%

## O=C(OCC(O)CO)c1ccccc1Nc1ccnc2cc(Cl)ccc12 (centres unmarked) [Glafenine]
[1]; [11]
  inhibition at 10 µM: 8%
[2]; [12]
  inhibition at 10 µM: 18%
[3]; [10]
  Quadrant (FIG. 5b): Q4
[4]; rat
  Fibrin % cell toxicity: 1%
[5]; rat
  LPS % cell toxicity: 0%
